{"source": "paper PMC11947619", "about": "“Molecular mechanism of Mad2 conformational conversion promoted by the Mad2‐interaction motif of Cdc20” (Protein Science : A Publication of the Protein Society, 2025)", "target": "T1, O‐Mad2^R133A (Homo sapiens, UniProt Q13257, R133A)", "T1 construct": "unable to collect equivalent data for full‐length O‐Mad2^R133A; His6-DoubleStrep-TEV (N); made in house", "T1 sequence (Q13257 whole entry R133A)": "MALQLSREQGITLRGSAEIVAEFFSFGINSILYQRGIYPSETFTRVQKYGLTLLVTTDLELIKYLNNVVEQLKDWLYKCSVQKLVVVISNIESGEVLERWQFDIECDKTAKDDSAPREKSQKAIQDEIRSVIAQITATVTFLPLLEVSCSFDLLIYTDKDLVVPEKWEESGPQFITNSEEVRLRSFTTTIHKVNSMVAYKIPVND", "experiment": "Time-resolved NMR: O-Mad2 to C-Mad2 conversion of O-Mad2^R133A with MIM peptides", "assay_type": "biochemical", "details": "100 μM O-Mad2^R133A, 25°C", "protocol": "FIGURE 2 NMR fingerprinting of Mad2. (a) Structural orientations of Trp75 (on the αB helix) and Trp167 (on the “safety‐belt”) in Mad2 produce distinct indole NH resonances. […] NMR spectra for O‐Mad2^R133A and “empty” C‐Mad2^L13A/R133A and C‐Mad2^R133A:Cdc20^MIM‐111‐138 are from Fischer et al. ([2022]) (c) Mad2 conversion rates vary with different MIM peptides. Conversion was traced over 24 h at 25°C using the Trp75 and Trp167 side‐chain resonances as reporters. MIM peptides were added at two‐fold molar excess to Mad2 (100 μM). Each spectrum required 12 min of acquisition time, therefore the 15 min time‐points represent the earliest spectra in the time‐resolved series. The schematics show the conformation of Mad2 as indicated by the tryptophan side‐chain resonances. A black tick marks when conversion is considered complete. NMR data for O‐Mad2^R133A with and without Cdc20^MIM‐111‐138 shown are from Fischer et al. ([2022]). In the case of full‐length Cdc20, the MIM sequence is sequestered by an auto‐inhibitory intramolecular interaction within Cdc20 itself, which prevents it from being readily accessible for binding to C‐Mad2 (Piano et al., [2021]). Conversely, isolated MIM peptides lack this auto‐inhibitory mechanism, allowing them to bind directly to C‐Mad2 without obstruction.\nTo understand whether Mad2 conversion times are modulated by different C‐Mad2 ligands, we used time‐resolved NMR to determine the conversion time of 100 μM O‐Mad2^R133A at 25°C. The indole NH resonances of Trp75 and Trp167 were used as reporters (Figure 2b). […] In contrast, conversion took ~24 h in the absence of Cdc20^MIM‐111‐138 peptide (Fischer et al., [2022]) (Figures 2c and S4b). […] Other MIM peptides also accelerated the O‐Mad2 to C‐Mad2 conversion. […] In “empty” C‐Mad2, the β7/β8 hairpin is displaced to expose the β6 strand for pairing with the MIM peptide (Luo et al., [2004]) (Figure S3a).\nMad2 constructs were expressed in BL21 Star (DE3) cells (Thermo Fisher Scientific), co‐transformed with a pRARE plasmid (Merck). Uniformly labeled proteins were expressed in M9 minimal media (6 g/L Na2HPO4, 3 g/L KH2PO4, 0.5 g/L NaCl) supplemented with 1.7 g/L yeast nitrogen base without NH4Cl and amino acids (Sigma Y1251). 1 g/L ^15NH4Cl and 4 g/L glucose were supplemented for ^15N labeling. For ^13C/^15N double‐labeled samples, unlabeled glucose was replaced with 3 g/L ^13C‐glucose. Protein expression was induced with 0.4 mM IPTG at 16°C overnight. All samples were purified as previously described (Luo & Yu, [2005]; Mapelli et al., [2007]) and all O‐Mad2 variants were kept at 4°C during purification to prevent conversion to C‐Mad2. Prior to all NMR experiments, proteins were dialyzed into 20 mM HEPES, pH 7.0, 100 mM NaCl, 1 mM TCEP. ^13C/^15N‐labeled samples were used for backbone assignment, and all other experimental data were acquired on ^15N‐labeled samples. Proteins were kept on ice before NMR experiments to ensure all O‐Mad2 remained in the open state. For “bound” C‐Mad2, MIM peptides were added in 1:2 molar excess to ensure complete conversion.\nAll peptides were synthesized by Cambridge Research Biochemicals, UK. Peptides were dialyzed into 20 mM HEPES, pH 7.0, 100 mM NaCl, and 1 mM TCEP for NMR experiments. The sequences for the peptides used in this study are: Cdc20^MIM‐111‐138 ([…]), Cdc20^MIM‐123‐137 (FDVEEAKILRLSGKP), Cdc20^MIM‐123‐152 ([…]), Cdc20^MIM‐138‐152 (QNAPEGYQNRLKVLY), Mad1^MIM‐529‐550 ([…]), and MBP1^MIM (SWYSYPPPQRAV). […]", "note": "Residues, ends and D or L forms follow the SMILES beside them."}
{"molecule": "CC[C@H](C)[C@H](NC(=O)[C@H](CCCCN)NC(=O)[C@H](C)NC(=O)[C@H](CCC(=O)O)NC(=O)[C@H](CCC(=O)O)NC(=O)[C@@H](NC(=O)[C@H](CC(=O)O)NC(=O)[C@@H](N)Cc1ccccc1)C(C)C)C(=O)N[C@@H](CC(C)C)C(=O)N[C@@H](CCCNC(=N)N)C(=O)N[C@@H](CC(C)C)C(=O)N[C@@H](CO)C(=O)NCC(=O)N[C@@H](CCCCN)C(=O)N1CCC[C@H]1C(=O)N[C@@H](CCC(N)=O)C(=O)N[C@@H](CC(N)=O)C(=O)N[C@@H](C)C(=O)N1CCC[C@H]1C(=O)N[C@@H](CCC(=O)O)C(=O)NCC(=O)N[C@@H](Cc1ccc(O)cc1)C(=O)N[C@@H](CCC(N)=O)C(=O)N[C@@H](CC(N)=O)C(=O)N[C@@H](CCCNC(=N)N)C(=O)N[C@@H](CC(C)C)C(=O)N[C@@H](CCCCN)C(=O)N[C@H](C(=O)N[C@@H](CC(C)C)C(=O)N[C@@H](Cc1ccc(O)cc1)C(=O)O)C(C)C", "note": "[Cdc20^MIM‐123‐152] (H-FDVEEAKILRLSGKPQNAPEGYQNRLKVLY-OH; N-terminus and C-terminus assumed)", "values": [{"measurement": "Mad2 conversion rate/efficiency, in words", "setting": "time-resolved NMR, compared with other Cdc20^MIM peptides", "result": "more efficient at triggering Mad2 conversion"}]}
{"molecule": "EHQKAWALNLNGFDVEEAKILRLSGKPQ [Cdc20^MIM‐111‐138, Cdc20^MIM peptide spanning Cdc20 residues 111–138]", "values": [{"measurement": "acceleration of O-Mad2 to C-Mad2 conversion vs absence of MIM peptide", "setting": "two-fold molar excess peptide, without peptide ~24 h", "result": "~50", "unit": "fold"}]}
{"molecule": "QNAPEGYQNRLKVLY [Cdc20^MIM‐138‐152, peptide of Cdc20 residues 138–152]", "values": [{"measurement": "induction of Mad2 conversion after two hours / binding, in words", "setting": "time-resolved NMR, two hours", "result": "failed to induce Mad2 conversion after two hours, and therefore alone are insufficient to bind Mad2"}]}
